The values below come from patent publication US5011840A, “Imidazolidinedione derivatives in diabetes treatment” (Pfizer Inc., priority 1989, dated 1991).

In test [1] the target is T1, aldose reductase (Homo sapiens, UniProt P15121).
T1 construct: partially purified aldose reductase enzyme obtained from human placenta; from tissue; host or cells: human placenta
The test is described as follows: Inhibition of aldose reductase enzyme activity (procedure of Hayman et al. as modified by Sestanj et al.). The class given is biochemical. The settings on record: for inhibition at 10 µM: 10^-5 M; for inhibition at 1 µM: 10^-6 M; for inhibition at 0.1 µM: 10^-7 M; for aldose reductase inhibition (in words): qualitative statement. The protocol:
(§1) The activity of the compounds of the present invention, as agents for the control of chronic diabetic complications, is determined by their ability to successfully pass one or more of the following standard biological or pharmacological tests, viz., (1) measuring their ability to inhibit the enzyme activity of isolated aldose reductase; (2) measuring their ability to reduce or inhibit sorbitol accumulation in the sciatic nerve and lens of acutely streptozotocinized (i.e., diabetic) rats; (3) measuring their ability to reverse already-elevated sorbitol levels in the sciatic nerve and lens of chronic streptozotocin-induced diabetic rats; (4) measuring their ability to prevent or inhibit galactitol formation in the lens of acutely galactosemic rats, and (5) measuring their ability to delay cataract formation and reduce the severity of lens opacities in chronic galactosemic rats.
The following 5-substituted imidzolidinedione derivatives of Examples 1 and 4, respectively, were tested for their ability to reduce or inhibit aldose reductase enzyme activity via the procedure of S. Hayman et al., as described in the Journal of Biological Chemistry, Vol. 240, p. 877 (1965) and as modified by K. Sestanj et al. in U.S. Pat. No. 3,821,383. In each case, the substrate employed was partially purified aldose reductase enzyme obtained from human placenta.

For test [2], the system named is sorbitol levels in nerve and lens of diabetic subjects. The test is described as follows: Lowering of sorbitol levels in sciatic/peripheral nerve and lens of diabetic subjects (general statement). The following applies: qualitative statement. The class given is in vivo. The protocol:
as §1

Test [3] relates to sorbitol accumulation in the lens. The test is described as follows: Inhibition of sorbitol accumulation in the lens of streptozotocinized (diabetic) rats. It is filed as in vivo, rat.
Description: (§2) As previously indicated, the 5-substituted imidazolidinedione compounds of this inventon are readily adapted to therapeutic use as aldose reductase inhibitors for the control of certain chronic diabetic complications, in view of their ability to reduce lens and peripheral nerve sorbitol levels in diabetic subjects to a statistically significant degree. […] Furthermore, the herein described compounds of this invention can be administered by either the oral, topical or parenteral routes of administration. […]
as §1, with “rats. […]” for “rats.”

In test [4] the test system is sorbitol accumulation in the sciatic nerve. Kind of test: Inhibition of sorbitol accumulation in the sciatic nerve of streptozotocinized (diabetic) rats. It is filed as in vivo, rat.
Description: as §2
as §1, with “rats. […]” for “rats.”

[5] abbreviates: partially purified enzyme from human placenta, read-out: Percent Inhibition of aldose reductase activity.
[6] abbreviates: 25 mg./kg. orally at 4, 8 and 24 hours after streptozotocin, measured at 27 hours, vs untreated control.
Setting [7] is: diabetic rats, oral, 25 mg./kg.

The inhibition is the change of the read-out against control, counted positive when it falls. Turning to `O=C1NC(=O)C(N2C(=O)c3cccc4cccc(c34)C2=O)N1` (stereo not shown) [Example 1, 5-naphthalimido-imidazolidine-2,4-dione], the inhibition at 100 µM in test [1] (10^-4 M, partially purified enzyme from human placenta, read-out: Percent Inhibition of aldose reductase activity) came out at 100%. Besides, in test [1] (setting [5]), the inhibition at 10 µM was 59%, the inhibition at 1 µM stood at 17% and the inhibition at 0.1 µM was determined as 6%. The “aldose reductase inhibition (in words)” value in test [1] is recorded as “potent aldose reductase inhibitors”. In addition, the “lowering sorbitol levels in the sciatic nerve and lens of diabetic subjects (in words)” value in test [2] is given as “effective in lowering sorbitol levels”.

In the case of `O=C1NC(=O)C(c2nn(Cc3ccc(Br)cc3F)c(=O)c3ccccc23)N1` (stereo not shown) [Example 4, 5-[3-(4'-bromo-2'-fluorobenzyl)-3,4-dihydro-4-oxophthalazin-1-yl]-imidazolidine-2,4-dione], in test [1] (setting [5]), the inhibition at 10 µM is 91%, the inhibition at 1 µM was determined as 86% and the inhibition at 0.1 µM came out at 72%. Also, in test [1] (10^-8 M, partially purified enzyme from human placenta, read-out: Percent Inhibition of aldose reductase activity), the inhibition at 0.01 µM amounted to 20%. Further, the “aldose reductase inhibition (in words)” value in test [1] is recorded as “potent aldose reductase inhibitors”. Moreover, the “reduction in the accumulated sorbitol levels in the lens” value in test [3] (setting [6]) came to 36%. Further, the “inhibition of the formation of sorbitol levels in the lens (in words)” value in test [3] (setting [7]) is reported as “to a significantly high degree”. The “lowering sorbitol levels in the sciatic nerve and lens of diabetic subjects (in words)” value in test [2] is “effective in lowering sorbitol levels”. Moreover, the “reduction in the accumulated sorbitol levels in the sciatic nerve” value in test [4] (setting [6]) was 61%. In addition, in test [4] (setting [7]), the “inhibition of the formation of sorbitol levels in the sciatic nerve (in words)” value is recorded as “to a significantly high degree”.
